System: Sclerotinia sclerotiorum
Experiment: Controlling test against Sclerotinia sclerotiorum on cucumber by foliage spraying (Test Example 1)
Type: in vivo
Conditions: single compound, 12° C. and high humidity for 6 days
Description: A sand loam was filled into a plastic pot, and cucumber (Sagamihanjiro) was seeded, and grown in a greenhouse for 12 days. A flowable of the compound I, and an emulsifiable concentrate of any one of the compound II to the compound IV were diluted with water separately, and they were tank-mixed to prepare a tank mix solution containing the compound I and any one of the compounds II to IV at predetermined concentrations. The tank mix solution was subjected to foliage spraying so that it was sufficiently adhered to a leaf surface of the cucumber. After spraying, the plant was air-dried, and a PDA medium containing hyphae of Sclerotinia sclerotiorum was placed on the cucumber leaf surface. After seeding, this was placed under 12° C. and high humidity for 6 days, the controlling effect was investigated. Separately, for comparison, a flowable of the compound I, or an emulsifiable concentrate of any one compound of the compound II to the compound IV was diluted with water to prepare a water-diluted solution containing the predetermined amount of any one of compounds I to IV, and the similar controlling test was carried out. Further, for calculating an effective value, an onset area rate (ratio of onset area occupied in leaf area examined) in each treatment group was determined. The effective value was calculated by the Equation 1. […] A: Onset area rate of non-treated group B: Onset area rate of treated group In general, a effective value expected in treatment by mixing given two kinds of active ingredient compounds, i.e., an expected effective value is calculated by a Colby calculation equation of the Equation 2. E=X+Y−(X×Y)/100 “Equation 2” X: Effective value obtained by treatment with M ppm of the compound I Y: Effective value obtained by treatment with N ppm of the compound II, III or IV E: Effective value expected in treatment with M ppm of the compound I and N ppm of the compound II, III or IV (expected effective value) In addition, a synergistic effect was shown herein by a value calculated by the following Equation 3.

[1] = active ingredient concentration 3.1 ppm

| SMILES | Actual effective value (active ingredient concentration 0.8 ppm) [%] | Actual effective value [1] [%] |
| --- | --- | --- |
| CC1(C)CCC(Cc2ccc(Cl)cc2)C1(O)Cn1cncn1 (stereo not drawn) [Compound II, (1RS,5RS;1RS,5SR)-5-(4-chlorobenzyl)-2,2-dimethyl-1-(1H-1,2,4-triazol-1-ylmethyl)cyclopentanol] | 0 | 5 |
| Fc1ccc([C@]2(Cn3cncn3)O[C@H]2c2ccccc2Cl)cc1 (racemic) [Compound IV, (2RS,3SR)-1-[3-(2-chlorophenyl)-2,3-epoxy-2-(4-fluorophenyl)propyl]-1H-1,2,4-triazole] |  | 6 |
| Clc1ccc(C2(Cn3cncn3)CC(Br)CO2)c(Cl)c1 (stereo not drawn) [Compound III, 1-[(2RS,4RS:2RS,4SR)-4-bromo-2-(2,4-dichlorophenyl)tetrahydrofurfuryl]-1H-1,2,4-triazole] |  | 1 |
| C=CCSC(=O)n1c(N)c(-c2ccccc2C)c(=O)n1C(C)C [Compound I] |  | 58 |
